Laboratory results: ChEMBL document CHEMBL5696442, “Discovery of type II inhibitors of TGFβ-activated kinase 1 (TAK1) and mitogen-activated protein kinase kinase kinase kinase 2 (MAP4K2)” (J Med Chem, 2015)
Active and inactive are the calls of the source. No cut-off for these calls is given here.

Experiments:
[1] = biological target: T1, Serine/threonine-protein kinase TAO1 (Homo sapiens) (UniProt Q7L7X3); test: Inhibition of TAO1 Lys2 labeling site in human A-375 cells at 5 uM by KiNativ Profiling analysis relative to control; format: cell-based
T1 sequence (whole entry): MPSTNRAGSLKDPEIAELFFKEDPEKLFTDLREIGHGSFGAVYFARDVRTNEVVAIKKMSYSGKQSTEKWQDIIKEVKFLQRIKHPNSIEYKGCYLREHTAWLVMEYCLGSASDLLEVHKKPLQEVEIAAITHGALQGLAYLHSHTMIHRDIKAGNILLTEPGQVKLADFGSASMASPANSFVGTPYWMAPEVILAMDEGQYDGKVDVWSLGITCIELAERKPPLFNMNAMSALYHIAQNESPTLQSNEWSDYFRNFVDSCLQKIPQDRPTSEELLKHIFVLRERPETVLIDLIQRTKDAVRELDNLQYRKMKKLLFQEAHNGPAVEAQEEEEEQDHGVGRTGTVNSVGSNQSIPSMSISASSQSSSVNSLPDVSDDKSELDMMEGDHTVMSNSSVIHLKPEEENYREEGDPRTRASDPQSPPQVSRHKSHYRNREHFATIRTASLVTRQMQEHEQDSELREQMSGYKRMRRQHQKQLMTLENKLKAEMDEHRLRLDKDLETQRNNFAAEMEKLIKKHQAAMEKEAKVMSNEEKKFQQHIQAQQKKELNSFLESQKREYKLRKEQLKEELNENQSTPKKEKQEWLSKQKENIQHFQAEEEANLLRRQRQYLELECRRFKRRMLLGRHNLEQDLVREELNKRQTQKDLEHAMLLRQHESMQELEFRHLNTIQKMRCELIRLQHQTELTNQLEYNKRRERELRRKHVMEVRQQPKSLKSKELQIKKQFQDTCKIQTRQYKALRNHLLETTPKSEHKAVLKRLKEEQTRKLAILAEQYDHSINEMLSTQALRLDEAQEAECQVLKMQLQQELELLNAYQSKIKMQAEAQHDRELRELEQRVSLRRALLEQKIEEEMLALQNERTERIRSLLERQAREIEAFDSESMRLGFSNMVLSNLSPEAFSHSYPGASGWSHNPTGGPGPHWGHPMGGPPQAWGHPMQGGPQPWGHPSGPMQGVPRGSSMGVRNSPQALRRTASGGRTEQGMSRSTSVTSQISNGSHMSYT

[2] = biological target: Serine/threonine-protein kinase 4 (Homo sapiens) (UniProt Q13043); test: Inhibition of MST1 (unknown origin) at 1 uM by Ambit Kinomescan binding assay relative to control
MEF = test: Inhibition of IL-1alpha induced p38 phosphorylation level in mouse MEF cells preincubated for 1 hr followed by IL-1 alpha stimulation and measured after 30 mins by Western blot analysis; format: functional, cell-based; conditions: dose 0.01-10 µM
[3] = biological target: Membrane-associated tyrosine- and threonine-specific cdc2-inhibitory kinase (Homo sapiens) (UniProt Q99640); test: Inhibition of PKMYT1 (unknown origin) at 10 uM by Ambit Kinomescan binding assay
[4] = biological target: T2, Inhibitor of nuclear factor kappa-B kinase subunit epsilon (Homo sapiens) (UniProt Q14164); test: Inhibition of IKKe Lys1 labeling site in human A-375 cells at 5 uM by KiNativ Profiling analysis relative to control; format: cell-based
T2 sequence (whole entry): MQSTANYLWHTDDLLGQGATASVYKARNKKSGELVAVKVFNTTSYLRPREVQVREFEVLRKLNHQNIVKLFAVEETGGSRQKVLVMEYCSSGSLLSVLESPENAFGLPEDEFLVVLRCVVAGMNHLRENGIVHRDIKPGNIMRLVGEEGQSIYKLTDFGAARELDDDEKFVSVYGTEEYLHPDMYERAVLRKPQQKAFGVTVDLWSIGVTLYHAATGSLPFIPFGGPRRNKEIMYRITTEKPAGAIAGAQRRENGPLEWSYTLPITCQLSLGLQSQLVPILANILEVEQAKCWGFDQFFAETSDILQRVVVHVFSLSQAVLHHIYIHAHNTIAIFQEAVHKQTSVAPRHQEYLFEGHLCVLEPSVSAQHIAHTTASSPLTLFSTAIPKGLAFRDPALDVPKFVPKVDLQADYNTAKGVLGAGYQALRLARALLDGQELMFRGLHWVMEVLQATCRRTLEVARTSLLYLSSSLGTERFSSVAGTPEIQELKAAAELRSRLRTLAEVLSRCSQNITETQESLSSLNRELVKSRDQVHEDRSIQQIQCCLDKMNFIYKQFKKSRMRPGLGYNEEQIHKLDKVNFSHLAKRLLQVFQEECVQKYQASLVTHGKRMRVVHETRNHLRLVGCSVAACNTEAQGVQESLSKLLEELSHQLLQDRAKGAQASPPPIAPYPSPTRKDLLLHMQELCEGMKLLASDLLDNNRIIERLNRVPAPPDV

[5] = biological target: eIF-2-alpha kinase GCN2 (Homo sapiens) (UniProt Q9P2K8); test: Inhibition of GCN2 K2 labeling site in human Huh-7 cells at 10 uM by KiNativ Profiling analysis relative to control; format: cell-based
[6] = biological target: MAP/microtubule affinity-regulating kinase 3 (Homo sapiens) (UniProt P27448); test: Inhibition of MARK3 Lys1 labeling site in human Huh-7 cell lysate at 1 uM by KiNativ Profiling analysis relative to control; format: subcellular
[7] = biological target: T3, Dual specificity mitogen-activated protein kinase kinase 6 (Homo sapiens) (UniProt P52564); test: Inhibition of MAP2K6 Lys2 labeling site in human Huh-7 cells at 1 uM by KiNativ Profiling analysis relative to control; format: cell-based
T3 sequence (whole entry): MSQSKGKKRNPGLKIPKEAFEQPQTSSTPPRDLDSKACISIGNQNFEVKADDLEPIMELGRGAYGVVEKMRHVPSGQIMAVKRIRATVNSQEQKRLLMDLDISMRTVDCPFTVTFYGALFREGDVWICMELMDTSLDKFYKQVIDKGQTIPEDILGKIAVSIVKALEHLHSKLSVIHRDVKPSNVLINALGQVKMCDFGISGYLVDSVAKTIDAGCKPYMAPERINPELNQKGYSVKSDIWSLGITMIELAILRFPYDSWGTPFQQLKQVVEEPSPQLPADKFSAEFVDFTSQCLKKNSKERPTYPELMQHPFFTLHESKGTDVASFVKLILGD

Sequence of Membrane-associated tyrosine- and threonine-specific cdc2-inhibitory kinase (Homo sapiens) (Q99640 whole entry): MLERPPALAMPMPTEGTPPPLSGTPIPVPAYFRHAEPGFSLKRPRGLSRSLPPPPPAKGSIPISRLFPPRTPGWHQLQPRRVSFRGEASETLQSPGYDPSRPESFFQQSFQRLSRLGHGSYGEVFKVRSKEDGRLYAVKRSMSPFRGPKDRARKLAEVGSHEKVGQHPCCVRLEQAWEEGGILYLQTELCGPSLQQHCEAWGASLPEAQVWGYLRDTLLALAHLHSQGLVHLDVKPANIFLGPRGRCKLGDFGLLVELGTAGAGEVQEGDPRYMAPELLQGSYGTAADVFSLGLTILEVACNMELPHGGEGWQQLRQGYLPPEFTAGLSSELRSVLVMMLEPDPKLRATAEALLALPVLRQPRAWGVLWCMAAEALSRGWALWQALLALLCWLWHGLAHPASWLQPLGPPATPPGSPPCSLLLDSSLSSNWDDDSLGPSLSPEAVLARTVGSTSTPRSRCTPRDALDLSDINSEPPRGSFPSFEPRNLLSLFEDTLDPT
Sequence of eIF-2-alpha kinase GCN2 (Homo sapiens) (Q9P2K8 whole entry): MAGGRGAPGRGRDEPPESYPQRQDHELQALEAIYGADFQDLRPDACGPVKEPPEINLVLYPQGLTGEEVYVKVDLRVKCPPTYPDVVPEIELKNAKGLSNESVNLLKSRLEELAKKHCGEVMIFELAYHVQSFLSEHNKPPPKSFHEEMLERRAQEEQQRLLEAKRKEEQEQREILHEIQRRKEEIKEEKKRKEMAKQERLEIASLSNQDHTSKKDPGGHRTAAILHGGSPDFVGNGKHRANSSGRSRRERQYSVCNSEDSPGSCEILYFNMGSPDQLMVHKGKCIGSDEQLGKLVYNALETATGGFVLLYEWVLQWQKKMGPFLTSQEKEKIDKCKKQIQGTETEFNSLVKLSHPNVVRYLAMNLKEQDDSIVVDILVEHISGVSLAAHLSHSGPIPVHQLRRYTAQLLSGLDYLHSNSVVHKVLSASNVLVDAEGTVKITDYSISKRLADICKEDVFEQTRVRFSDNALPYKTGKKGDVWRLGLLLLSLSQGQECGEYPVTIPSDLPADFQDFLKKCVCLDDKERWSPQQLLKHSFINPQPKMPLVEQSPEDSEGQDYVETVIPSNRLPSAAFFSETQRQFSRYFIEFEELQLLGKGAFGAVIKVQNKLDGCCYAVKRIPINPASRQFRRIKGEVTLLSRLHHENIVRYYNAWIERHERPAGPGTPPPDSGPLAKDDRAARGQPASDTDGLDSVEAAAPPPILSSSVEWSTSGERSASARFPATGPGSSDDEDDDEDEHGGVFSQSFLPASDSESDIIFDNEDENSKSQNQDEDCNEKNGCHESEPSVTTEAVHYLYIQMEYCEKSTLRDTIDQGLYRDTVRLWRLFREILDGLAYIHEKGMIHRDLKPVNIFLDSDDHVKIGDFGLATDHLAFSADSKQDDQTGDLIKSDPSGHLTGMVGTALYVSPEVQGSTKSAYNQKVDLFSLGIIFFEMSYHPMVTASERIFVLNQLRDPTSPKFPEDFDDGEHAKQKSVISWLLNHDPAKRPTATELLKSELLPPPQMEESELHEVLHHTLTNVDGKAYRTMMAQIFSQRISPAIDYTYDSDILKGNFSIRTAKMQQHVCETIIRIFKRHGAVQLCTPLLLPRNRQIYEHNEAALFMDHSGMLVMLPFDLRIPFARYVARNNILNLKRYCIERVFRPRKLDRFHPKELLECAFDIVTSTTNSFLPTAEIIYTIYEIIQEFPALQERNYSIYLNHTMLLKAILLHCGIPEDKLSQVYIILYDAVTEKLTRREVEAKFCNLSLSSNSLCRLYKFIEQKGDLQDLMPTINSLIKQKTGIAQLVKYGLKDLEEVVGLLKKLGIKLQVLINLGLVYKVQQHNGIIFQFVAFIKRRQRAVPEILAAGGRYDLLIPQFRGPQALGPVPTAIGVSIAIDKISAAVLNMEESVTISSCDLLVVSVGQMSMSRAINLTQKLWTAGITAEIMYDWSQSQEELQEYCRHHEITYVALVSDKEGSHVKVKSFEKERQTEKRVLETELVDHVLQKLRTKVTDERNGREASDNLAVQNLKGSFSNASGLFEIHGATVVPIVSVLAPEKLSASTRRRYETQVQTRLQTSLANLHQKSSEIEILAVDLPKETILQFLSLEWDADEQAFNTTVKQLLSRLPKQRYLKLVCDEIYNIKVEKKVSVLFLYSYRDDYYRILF
Sequence of MAP/microtubule affinity-regulating kinase 3 (Homo sapiens) (P27448 whole entry, looked up): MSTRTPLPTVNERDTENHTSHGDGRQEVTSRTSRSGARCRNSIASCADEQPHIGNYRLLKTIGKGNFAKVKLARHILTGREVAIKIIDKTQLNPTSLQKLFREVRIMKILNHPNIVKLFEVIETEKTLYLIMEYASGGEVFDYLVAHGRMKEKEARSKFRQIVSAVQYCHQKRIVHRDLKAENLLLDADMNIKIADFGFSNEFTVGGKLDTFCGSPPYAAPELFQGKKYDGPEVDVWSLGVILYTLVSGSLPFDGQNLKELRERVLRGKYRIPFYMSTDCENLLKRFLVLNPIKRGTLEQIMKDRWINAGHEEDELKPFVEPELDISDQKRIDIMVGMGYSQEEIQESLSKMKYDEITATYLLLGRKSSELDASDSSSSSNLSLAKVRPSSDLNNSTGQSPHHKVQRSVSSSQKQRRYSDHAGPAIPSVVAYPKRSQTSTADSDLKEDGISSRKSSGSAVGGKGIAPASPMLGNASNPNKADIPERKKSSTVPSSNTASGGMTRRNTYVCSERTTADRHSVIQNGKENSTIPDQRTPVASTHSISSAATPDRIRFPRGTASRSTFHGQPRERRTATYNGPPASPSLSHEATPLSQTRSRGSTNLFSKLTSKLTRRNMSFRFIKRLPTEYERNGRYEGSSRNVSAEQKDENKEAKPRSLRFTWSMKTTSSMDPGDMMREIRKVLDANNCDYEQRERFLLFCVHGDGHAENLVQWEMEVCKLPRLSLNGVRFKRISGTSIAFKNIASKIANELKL
Sequence of Serine/threonine-protein kinase 4 (Homo sapiens) (Q13043 whole entry, looked up): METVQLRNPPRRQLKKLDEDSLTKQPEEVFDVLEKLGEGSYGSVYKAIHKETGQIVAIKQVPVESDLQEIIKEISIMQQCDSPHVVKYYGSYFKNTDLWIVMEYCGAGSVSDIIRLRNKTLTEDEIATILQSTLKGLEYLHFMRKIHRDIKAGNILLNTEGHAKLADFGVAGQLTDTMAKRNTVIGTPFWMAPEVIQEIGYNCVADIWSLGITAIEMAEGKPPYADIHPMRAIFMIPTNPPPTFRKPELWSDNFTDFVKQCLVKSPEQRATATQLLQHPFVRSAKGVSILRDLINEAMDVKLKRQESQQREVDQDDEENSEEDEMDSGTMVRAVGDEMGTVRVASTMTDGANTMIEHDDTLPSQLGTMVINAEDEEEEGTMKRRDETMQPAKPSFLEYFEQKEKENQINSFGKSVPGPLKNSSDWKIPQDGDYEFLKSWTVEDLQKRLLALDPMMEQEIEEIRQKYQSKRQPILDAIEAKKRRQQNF

## CCN1CCN(Cc2ccc(NC(=O)c3ccc(C)c(/C=C/c4cnc5[nH]ccc5c4OC)c3)cc2C(F)(F)F)CC1
[1]
  inhibition: 66.2%
[2]
  inhibition: 72%

## CCN1CCN(Cc2ccc(NC(=O)c3ccc(C)c(Oc4ccnc5[nH]ccc45)c3)cc2C(F)(F)F)CC1
MEF
  inhibition: Dose-Dependent Effect
[3]
  inhibition: inactive
[4]
  inhibition: 0.8%
[5]
  inhibition: 14.7%

## CNc1cc(Oc2cc(C(=O)Nc3cc(N4CCN(C)CC4)cc(C(F)(F)F)c3)ccc2C)ncn1
[6]
  inhibition: 13.8%
[7]
  inhibition: -1.5%
